# Values quoted from earlier work, collected in patent publication US8097625B2, “Combination of sedative and a neurotransmitter modulator, and methods for improving sleep quality and treating depression” (priority 2003, dated 2012).
# Counter-ions that a name gives are not always drawn.
# Legend:
# [1] = oral, 10 mg or 20 mg daily doses; cited from earlier work
# [2] = test system: norepinephrine and serotonin reuptake; conditions: cited from earlier work
# mice = conditions: reference agents, scores below 40 denote behavioral depression; cited from earlier work
# [3] = target: norepinephrine transporter (Homo sapiens, UniProt P23975); conditions: cited from earlier work
# Sequence of norepinephrine transporter (P23975 whole entry): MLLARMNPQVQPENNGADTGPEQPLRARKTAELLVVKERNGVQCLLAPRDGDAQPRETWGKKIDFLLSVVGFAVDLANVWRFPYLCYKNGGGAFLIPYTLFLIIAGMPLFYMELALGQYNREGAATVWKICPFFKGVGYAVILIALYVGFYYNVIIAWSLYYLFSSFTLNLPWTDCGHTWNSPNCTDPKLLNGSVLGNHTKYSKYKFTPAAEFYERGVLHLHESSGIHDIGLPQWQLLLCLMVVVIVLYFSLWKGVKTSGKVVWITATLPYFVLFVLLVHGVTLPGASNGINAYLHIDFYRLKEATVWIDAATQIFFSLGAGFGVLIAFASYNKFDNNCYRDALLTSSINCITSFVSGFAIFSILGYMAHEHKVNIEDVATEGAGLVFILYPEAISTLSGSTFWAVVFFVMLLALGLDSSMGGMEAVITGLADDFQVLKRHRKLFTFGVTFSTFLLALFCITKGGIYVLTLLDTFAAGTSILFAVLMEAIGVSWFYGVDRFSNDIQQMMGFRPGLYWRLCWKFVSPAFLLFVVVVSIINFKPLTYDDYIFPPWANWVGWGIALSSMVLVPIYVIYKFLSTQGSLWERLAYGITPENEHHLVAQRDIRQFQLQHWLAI
# [4] = test system: patients with major depression; conditions: 24 patients (37 trials) with major depression, 3 weeks; cited from earlier work
# [5] = oral; cited from earlier work
# [6] = humans, cited from earlier work
# [7] = target: GABA:2-oxo-glutarate aminotransferase (Homo sapiens, UniProt P80404); conditions: 10^−3 M; cited from earlier work
# Sequence of GABA:2-oxo-glutarate aminotransferase (P80404 29-500): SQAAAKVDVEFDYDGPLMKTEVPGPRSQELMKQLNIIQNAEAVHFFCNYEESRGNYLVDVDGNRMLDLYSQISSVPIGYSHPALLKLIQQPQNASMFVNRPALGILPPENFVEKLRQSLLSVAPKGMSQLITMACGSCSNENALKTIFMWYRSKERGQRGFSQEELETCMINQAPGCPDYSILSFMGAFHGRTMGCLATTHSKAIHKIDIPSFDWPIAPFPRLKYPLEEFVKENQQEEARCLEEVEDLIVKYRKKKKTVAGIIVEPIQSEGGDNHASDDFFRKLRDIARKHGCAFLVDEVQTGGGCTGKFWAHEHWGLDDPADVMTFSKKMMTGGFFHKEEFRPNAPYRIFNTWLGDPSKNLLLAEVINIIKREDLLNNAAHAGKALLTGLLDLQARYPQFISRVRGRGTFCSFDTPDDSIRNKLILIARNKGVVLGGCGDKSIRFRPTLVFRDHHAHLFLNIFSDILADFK
# [8] = test system: lumbar dorsal horn interneurones and Renshaw cells; conditions: cats anaesthetized with pentobarbitone sodium; electrophoretic currents; cited from earlier work
# [9] = test system: L-glutamate 1-carboxylase; conditions: 10^−3 M; cited from earlier work
# GABA uptake system = test system: GABA uptake system; parameters: dose or concentration left out as unconfirmed; conditions: cited from earlier work
# [10] = humans, 20 or 40 mg b.i.d. for 7 days; cited from earlier work
# [11] = cited from earlier work
# [12] = cited from earlier work; remark: listed apart in the source
smiles,measurement,setting,value
"CNCCC(Oc1ccc(C(F)(F)F)cc1)c1ccccc1.Cl (racemic) [Fluoxetine hydrochloride, N-methyl-3-(p-trifluormethylphenoxy)3-phenylpropylamine]",elimination half-life,[1],1 to 9 days
same,"elimination half-life, averaging",[1],2 to 3 days
"CCN(CC)C(=O)[C@@]1(c2ccccc2)C[C@H]1CN (single isomer, unassigned) [levrogyral enantiomer]",activity in inhibiting norepinephrine and serotonin reuptake versus the racemic mixture,[2],much less potent
CCCC(C)C1(CC)C(=O)NC(=O)NC1=O (stereo not drawn) [pentobarbital],ED100,mice,100 mg/kg
CCC1(c2ccccc2)CCC(=O)NC1=O (stereo not drawn) [glutethimide],ED100,mice,300 mg/kg
"c1ccc(CCCN2CCN(CCOC(c3ccccc3)c3ccccc3)CC2)cc1 [GBR-12935, 1-[2-(diphenylmethoxy)ethyl]-4-(3-phenylpropyl)piperazine dihydrochloride]",Ki,[3],225 nM
CCCC(C)(COC(N)=O)COC(N)=O [meprobamate],ED100,mice,300 mg/kg
"CNCC(O)CC12CCC(c3ccccc31)c1ccccc12 (racemic) [oxaprotiline, (±)-α-[(Methylamino)-methyl]-9,10-ethanoanthracene-9(10H)-ethanol]",Hamilton Scores,[4],significant reduction
"Cc1ccc(-c2nc3ccc(C)cn3c2CC(=O)N(C)C)cc1 [zolpidem, N,N,6-trimethyl-2-(4-methylphenyl)-imidazo [1,2-s]pyridine-3-acetamide]",duration of action,[5],up to 6 hours
COC(=O)[C@H]1[C@H]2C[C@@H]3c4[nH]c5cc(OC)ccc5c4CCN3C[C@H]2C[C@@H](OC(=O)c2cc(OC)c(OC)c(OC)c2)[C@@H]1OC [reserpine],ED100,mice,50 mg/kg
"CCN(CC)C(=O)[C@@]1(c2ccccc2)C[C@H]1CN (single isomer, unassigned) [dextrogyral enantiomer of milnacipran]",activity in inhibiting norepinephrine and serotonin reuptake versus the racemic mixture,[2],about twice as active
CC(NC(C)(C)C)C(=O)c1cccc(Cl)c1 (stereo not drawn) [Bupropion],mean elimination half-life (±SD),[6]; after chronic dosing,21 (±9) hours
same,terminal phase mean half-life,[6]; oral administration,14 h
O=C(CCCN1CCC(O)(c2ccc(Cl)cc2)CC1)c1ccc(F)cc1 [haloperidol],ED100,mice,10 mg/kg
"Oc1noc2c1CCNC2 [gaboxadol, 4,5,6,7-tetrahydroisoxazolo[5,4-c]pyridin-3-ol]",interaction with GABA:2-oxo-glutarate aminotransferase,[7],did not interact
same,"potency versus GABA, inhibition of the firing of central neurones",[8],relatively more potent than GABA
same,interaction with L-glutamate 1-carboxylase,[9],did not interact
same,interaction with the GABA uptake system,GABA uptake system,did not interact
"CNCC[C@@H](Oc1ccccc1C)c1ccccc1 [tomoxetine, (R)-(−)-N-methyl-3-(2-methylphenoxy)-3-phenylpropylamine]",drug-related adverse effects,[10],no serious drug-related adverse effects were observed
"CC(=O)N(C)c1cccc(-c2ccnc3c(C(=O)c4cccs4)cnn23)c1 [Indiplon, N-methyl-N-(3-{3-[2-thienylcarbonyl]-pyrazolo-[1,5-a]-pyrimidin-7-yl}-phenyl)acetamide]",resulting pH of solution in water,[11]; at approximately 20-30 µg/mL,approximately 8.0
same,soluble in water,[11]; resulting pH approximately 8.0,20 to 30 µg/mL
same,half-life in vivo,[12],approximately 1.3 hours
"CNCCCC12CCC(c3ccccc31)c1ccccc12 [Maprotiline hydrochloride, N-Methyl-9,10-ethanoanthracene-9(10H)-propanamine]",solubility in water (in words),[11],slightly soluble in water
"CNCCCN1c2ccccc2CCc2ccccc21 [Desipramine hydrochloride, 10,11-Dihydro-N-methyl-5H-dibenz[b,f]azepine-5-propanamine]",solubility in water (in words),[11],soluble in water
